According to patent publication US20060111420A1, “Sorbicillactone-a derivatives for the treatment of tumour and viral diseases” (Johannes Gutenberg-Universitat Mainz, priority 2002, published 2006):

Legend:
[1] = test system: L5178y mouse lymphoma cellular system (ATCC CRL 1722); experiment: Antitumoural activity, L5178y cell proliferation (XTT); assay type: cell-based; details: for Optical density (595 nm): 72 h, XTT, control 0.38; for cellular proliferation after 72 h: at >0.1 μg/ml
[2] = target: phospholipase A2 [from bee's poison] (Apis mellifera, UniProt P00630); experiment: biochemical; details: read-out: inhibition of phospholipase A2
mice-ear oedema = experiment: TPA-induced mice-ear oedema; assay type: in vivo, mice (Swiss); details: 20 μg topically 10 min after TPA (10 μg); n=5; P<=0.01
[3] = test system: human foreskin-fibroblasts; experiment: Proliferation of human foreskin-fibroblasts; assay type: cell-based; details: 30 μg/ml; cell count microscopically

Chain of phospholipase A2 [from bee's poison] (P00630 34-167 limits assumed): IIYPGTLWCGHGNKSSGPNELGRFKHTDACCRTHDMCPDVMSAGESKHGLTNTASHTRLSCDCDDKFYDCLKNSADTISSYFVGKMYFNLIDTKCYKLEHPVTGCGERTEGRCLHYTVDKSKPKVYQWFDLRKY

| SMILES | Optical density (595 nm) ([1]; 0.1 μg/ml) | Optical density (595 nm) ([1]; 0.3 μg/ml) | Optical density (595 nm) ([1]; 1.0 μg/ml) | Optical density (595 nm) ([1]; 3.0 μg/ml) | cellular proliferation after 72 h [1] | inhibition at 2 µg/mL [2] | inhibition of the formation of the oedema (mice-ear oedema) | effect on the proliferation [3] | mortality (NMRI-mice; 20 mg/kg per day i.p. for five days) | sub-acute toxicity (NMRI-mice; male, NMRI, mouse, in vivo, ip, 5 days) |
| --- | --- | --- | --- | --- | --- | --- | --- | --- | --- | --- |
| C/C=C/C=C/C(O)=C1/C(=O)C(C)=C(O)C2(C)OC(=O)C(C)(NC(=O)C3NN=CC3C(=O)OC)C12 (stereo not drawn) [SOA-D1] | 0.29 | 0.22 | 0.05 | 0.03 | drastically reduced |  |  |  |  |  |
| C/C=C/C=C/C(O)=C1/C(=O)C(C)=C(O)[C@@]2(C)OC(=O)[C@@](C)(NC(=O)/C=C/C(=O)O)[C@@H]12 [Sorbicillacton A, sorbicillacton A] | 0.24 | 0.19 | 0.07 | 0.06 | drastically reduced | ~80% | 39.2±5.3% | no effect on the proliferation | None of the test animals dies | > 20 mg/kg |
